What was measured:
[1] = test system: LN229 R132H cells overexpressing mutated isocitrate dehydrogenase (mIDH); test: Mutant IDH1 cellular assay (2-HG levels in medium); assay type: cell-based; settings: 2-HG in medium of LN229 R132H cells, 24 hours incubation, fluorescence readout
Description: Mutant IDH1 Cellular Assay
Levels of (2R)-2-hydroxyglutarate (2HG) were measured in medium of a cell line with overexpression of mutated isocitrate dehydrogenase (mIDH) protein. mIDH catalyzes the NADPH-dependent reduction of alpha-ketoglutarate to 2-HG. Cells (LN229 R132H, Mohrenz et al., Apoptosis (2013) 18:1416-1425) were grown in DMEM containing 10% FCS. They were harvested by trypsin and seeded into 96-well plates. Cells were incubated overnight at 37° C. in 5% CO2. The next day test compounds were added to each cell well. The final concentration of DMSO was 0.1% and DMSO controls were included. The plates were then placed in an incubator for 24 hours.
2-HG was measured according to Balss et al. (Acta Neuropathol (2012) 124: 883-891). Briefly, HClO4 was added to each well and the plates were centrifuged. Aliquots are removed and incubated with hydroxyglutarate dehydrogenase (HGDH), diaphorase, NAD+, and resazurin. The conversion of resazurin to resorufin was detected by fluorescence spectroscopy at Ex 540 nm Em 600 nm. The increase in fluorescence is proportional to 2-HG production. IC50 values are determined by interpolation from plots of relative fluorescence vs inhibitor concentration.

IDH1 R132H enzyme = IDH1 R132H enzyme (Homo sapiens (Human), UniProt O75874, R132H); test: Mutant IDH1 R132H biochemical assay; settings: NADPH consumption, luminescent readout, 250 μM α-KG, 1 μM NADPH, 32° C., 30 minutes, test range 0.002-10 μM; further: 1.5 nM enzyme
IDH1 R132H enzyme, sequence (O75874 whole entry R132H): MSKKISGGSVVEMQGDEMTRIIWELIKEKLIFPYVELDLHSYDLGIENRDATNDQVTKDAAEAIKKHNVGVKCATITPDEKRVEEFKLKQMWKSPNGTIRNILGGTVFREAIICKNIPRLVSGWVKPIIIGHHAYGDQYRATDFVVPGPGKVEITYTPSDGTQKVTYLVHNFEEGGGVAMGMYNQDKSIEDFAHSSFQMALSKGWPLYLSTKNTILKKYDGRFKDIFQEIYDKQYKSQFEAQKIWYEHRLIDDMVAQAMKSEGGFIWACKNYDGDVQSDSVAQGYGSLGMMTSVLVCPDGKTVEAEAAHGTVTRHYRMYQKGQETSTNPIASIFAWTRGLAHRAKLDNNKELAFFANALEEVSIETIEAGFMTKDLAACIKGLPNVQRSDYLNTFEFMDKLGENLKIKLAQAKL
Description: mIDH1 catalyzes the NADPH-dependent reduction of alpha-ketoglutarate (α-KG) to (2R)-2-hydroxyglutarate (2-HG). NADPH consumption was measured by luminescent readout.
The biochemical reactions were performed at 32° C. in 384-well plates using a reaction volume of 41 μl and the following assay buffer conditions: 50 mM Tris pH 7.5, 100 mM NaCl, 20 mM MgCl2, 0.05% BSA, 0.01% Brij, 1 μM NADPH, and 250 μM α-KG. […] Test compounds were used in a concentration range between 0.002 and 10 μM. The final DMSO concentration was 2.4%.
The reaction was incubated for 30 minutes, then 40 μl of detection mix (0.75 μg/ml Luciferase, 0.02 U/ml Oxidoreductase, 4 μg/ml FMN, 2 μl/ml Decanal/Ethanol, 50 mM Tris pH 7.5, 0.5% Glycerin, 0.01% Tween-20, 0.05% BSA) was added. Luminescence was measured on a luminescent reader (10 seconds measuring time, 1 second integration period, 30% sensitivity). The decrease in luminescence is proportional to mIDH1 activity. IC50 values are determined by interpolation from plots of relative luminescence versus inhibitor concentration.

| SMILES | IC50 ([1]; Homo sapiens, LN-229, 24 h) | IC50 (IDH1 R132H enzyme) | IC50 [1] |
| --- | --- | --- | --- |
| COC(=O)CN(C)C(=O)c1ccc2nc(Nc3ccc(OC(F)(F)F)cc3)n([C@H]3C[C@@H](C)CC(C)(C)C3)c2c1 (racemic) [Example 2-9, (±) methyl N-methyl-N-[(2-{[4-(trifluoromethoxy)phenyl]amino}-1-[(cis)-3,3,5-trimethylcyclohexyl]-1H-benzimidazol-6-yl)carbonyl]glycinate] | 9000 nM | 250 nM |  |
| C[C@@H]1C[C@H](n2c(Nc3ccc(OC(F)(F)F)cc3)nc3ccc(C(=O)N(C)C)cc32)CC(C)(C)C1 (racemic) [Example 2-20, (±) N,N-dimethyl-2-{[4-(trifluoromethoxy)phenyl]amino}-1-[(cis)-3,3,5-trimethylcyclohexyl]-1H-benzimidazole-6-carboxamide] | 2000 nM | 100 nM |  |
| C[C@@H]1C[C@H](n2c(Nc3ccc(OC(F)(F)F)cc3)nc3ccc(C(=O)N(C)C)cc32)CC(C)(C)C1 (single isomer, unassigned; enantiomer a) [Example 2-20-1, (±) N,N-dimethyl-2-{[4-(trifluoromethoxy)phenyl]amino}-1-[(cis)-3,3,5-trimethylcyclohexyl]-1H-benzimidazole-6-carboxamide, enantiomer A] |  | 80 nM | 1800 nM |
| C[C@@H]1C[C@H](n2c(Nc3ccc(OC(F)(F)F)cc3)nc3ccc(C(=O)N4CCOCC4)cc32)CC(C)(C)C1 (single isomer, unassigned; enantiomer b) [Example 2-16-2, morpholin-4-yl(2-{[4-(trifluoromethoxy)phenyl]amino}-1-[(cis)-3,3,5-trimeethylcyclohexyl]-1H-benzimidazol-6-yl)methanone, enantiomer B] | 400 nM |  |  |
| C[C@@H]1C[C@H](n2c(Nc3ccc(OC(F)(F)F)cc3)nc3ccc(C(=O)N(C)C)cc32)CC(C)(C)C1 (single isomer, unassigned; enantiomer b) [Example 2-20-2, (±) N,N-dimethyl-2-{[4-(trifluoromethoxy)phenyl]amino}-1-[(cis)-3,3,5-trimethylcyclohexyl]-1H-benzimidazole-6-carboxamide, enantiomer B] |  | 200 nM | 4300 nM |
